In brackets after ≈: the same amount, converted by molar mass. Activity calls are given as the source filed them. No cut-off for these calls is given here.
Experiments:
[1] = Metabolic stability in mouse liver microsomes assessed as half-life at 2 uM measured upto 60 mins in presence of NADPH by LC-MS/MS analysis; assay type: ADME, Microsome
[2] = tested on: CAPAN-1; assay: Cytotoxicity against human CAPAN-1 cells harboring KRAS G12V mutant cultured as 2D cells assessed as reduction in cell viability incubated for 120 hrs by CellTiter-Glo luminescence assay; assay type: functional, cell-based; settings: CAPAN-1, 120 h
[3] = Mutagenicity in Salmonella typhimurium by Ames test; assay type: toxicity; settings: salmonella enterica subsp. enterica serovar typhimurium
[4] = Toxicity in human PBL cells in presence of rat S9 fraction by micronucleus assay; assay type: subcellular
[5] = tested on: Hs766T; assay: Inhibition of ERK1/2 phosphorylation in human Hs766T cells harboring […] mutant incubated for 4 hrs by AlphaLISA assay; assay type: cell-based
[6] = Volume of distribution at steady state in male Sprague-Dawley rat at 1 mg/kg, iv measured after 24 hrs by LC-MS/MS analysis; assay type: ADME, organism-based; settings: in vivo, read-out: Vdss
[7] = Inhibition of 6His-tagged KRAS G12D mutant(1 to 169 residues)/GST-tagged GMPPNP-bound BRAF RBD (155 to 229 reisudes)/Cyclophilin A (unknown origin) tri-complex protein-protein interaction incubated for 3 hrs by TR-FERT based disruption assay; set-up: species or system Homo sapiens
[8] = Inhibition of ERK1/2 phosphorylation in human NCI-H358 cells harboring KRAS G12C mutant incubated for 4 hrs by AlphaLISA assay; assay type: cell-based; settings: NCI-H358, 4 h
[9] = Half-life in female BALB/c mouse at 1 mg/kg, iv measured after 24 hrs by LC-MS/MS analysis; assay type: ADME, organism-based; settings: in vivo
[10] = Efflux ratio of apparent permeability in human Caco-2 cells at 5 uM incubated for 2 hrs by LC-MS/MS analysis; assay type: ADME, cell-based
[11] = Kinetic solubility of compound in PBS at pH 5.0 measured after 5 hrs by UV analysis; assay type: physicochemical; settings: read-out: Kinetic_solubility
[12] = tested on: HPAF-II; assay: Antitumor activity against human HPAF-II cells harboring wildtype KRAS/KRAS G12D mutant xenografted in female BALB/c mouse model assessed as tumor regression at 25 mg/kg, po administered once daily for 28 days; assay type: functional, organism-based; settings: time 28.0 day
[13] = Inhibition of 6His-tagged KRAS G12C mutant(1 to 169 residues)/GST-tagged GMPPNP-bound BRAF RBD (155 to 229 reisudes)/Cyclophilin A (unknown origin) tri-complex protein-protein interaction incubated for 3 hrs by TR-FERT based disruption assay; set-up: species or system Homo sapiens
[14] = tested on: NCI-H1373; assay: Antitumor activity against human NCI-H1373 cells harboring KRAS G12C/KRAS G12C mutant xenografted in female BALB/c nude mouse assessed as tumor regression at 25 mg/kg, po administered once daily for 28 days; assay type: functional, organism-based; settings: time 28.0 day
[15] = Oral bioavailability in male cynomolgus monkey at 10 mg/kg measured after 24 hrs by LC-MS/MS analysis; assay type: ADME, organism-based, Macaca fascicularis; settings: in vivo
[16] = tested on: NCI-H441; assay: Inhibition of ERK1/2 phosphorylation in human NCI-H441 cells harboring KRAS G12V mutant incubated for 4 hrs by AlphaLISA assay; assay type: cell-based
[17] = tested on: Hs 766; assay: Cytotoxicity against human Hs766T cells harboring KRAS Q61H mutant cultured as 2D cells assessed as inhibition of cell proliferation incubated for 120 hrs by CellTiter-Glo luminescence assay; assay type: functional, cell-based
[18] = Toxicity in female BALB/c nude mouse xenografted with human NCI-H441 cells harboring wildtype KRAS/KRAS G12V mutant assessed as effect on body weight at 25 mg/kg, po administered once daily for 28 days; assay type: organism-based; settings: in vivo, 672 h, time 28 day
[19] = tested on: ASPC1; assay: Cytotoxicity against human ASPC1 cells harboring KRAS G12D mutant cultured as 2D cells assessed as reduction in cell viability incubated for 120 hrs by CellTiter-Glo luminescence assay; assay type: functional, cell-based; settings: ASPC1, 120 h
[20] = In vivo inhibition of MAPK signaling pathway in female BALB/c nude mouse xenografted with human MIA PaCa-2 cells harboring KRAS G12C/G12C mutant assessed as reduction in DUSP6 mRNA level in tumor at 10 mg/kg, po administered as single dose and measured after 8 hrs by qPCR analysis relative to control; assay type: functional
[21] = tested on: MIA PaCa-2; assay: Antitumor activity against human MIA PaCa-2 cells harboring KRAS G12C/G12C mutant xenografted in female BALB/c mouse model assessed as reduction in tumor volume administered orally as once daily dose for 28 days; assay type: functional, cell-based; settings: dose 3-25 mg/kg, route po, time 28.0 day
[22] = Clearance in male Sprague-Dawley rat at 1 mg/kg, iv measured after 24 hrs by LC-MS/MS analysis; assay type: ADME, organism-based; settings: in vivo
[23] = Clearance in female BALB/c mouse plasma at 1 mg/kg, iv measured after 24 hrs by LC-MS/MS analysis; assay type: ADME, organism-based
[24] = biological target: Voltage-dependent L-type calcium channel subunit alpha-1C (Homo sapiens, UniProt Q13936); assay: Inhibition of human Cav1.2; assay type: toxicity
[25] = Kinetic solubility of compound in PBS at pH 7.4 measured after 5 hrs by UV analysis; assay type: physicochemical; settings: read-out: Kinetic_solubility
[26] = Toxicity in female BALB/c nude mouse xenografted with human HPAF-II cells harboring wildtype KRAS/KRAS G12D mutant assessed as effect on body weight at 25 mg/kg, po administered once daily for 28 days; assay type: organism-based; settings: in vivo, 672 h, time 28 day
[27] = tested on: Mus musculus; assay: In vivo inhibition of MAPK signaling pathway in female BALB/c nude mouse xenografted with human MIA PaCa-2 cells harboring KRAS G12C/G12C mutant assessed as reduction in DUSP6 mRNA level in tumor at 3 to 10 mg/kg, po administered as single dose and measured upto 48 hrs by qPCR analysis; assay type: functional, organism-based; settings: dose 3-10 mg/kg
[28] = Volume of distribution at steady state in female BALB/c mouse at 1 mg/kg, iv measured after 24 hrs by LC-MS/MS analysis; assay type: ADME, organism-based; settings: in vivo, read-out: Vdss
[29] = tested on: NCI-H441; assay: Antitumor activity against human NCI-H441 cells harboring wildtype KRAS/KRAS G12V mutant xenografted in female BALB/c nude mouse assessed as tumor regression at 25 mg/kg, po administered once daily for 28 days; assay type: functional, organism-based; settings: time 28.0 day
[30] = Oral bioavailability in female BALB/c mouse plasma at 10 mg/kg measured after 24 hrs by LC-MS/MS analysis; assay type: ADME, organism-based
[31] = Inhibition of 6His-tagged KRAS G12V mutant(1 to 169 residues)/GST-tagged GMPPNP-bound BRAF RBD (155 to 229 reisudes)/Cyclophilin A (unknown origin) tri-complex protein-protein interaction incubated for 3 hrs by TR-FERT based disruption assay; set-up: species or system Homo sapiens
[32] = Tmax in male Beagle dog at 5 mg/kg, po measured after 24 hrs by LC-MS/MS analysis; assay type: ADME, organism-based, Canis lupus familiaris; settings: in vivo
[33] = tested on: HCT-116; assay: Inhibition of ERK1/2 phosphorylation in human HCT-116 cells harboring KRAS G13D mutant incubated for 4 hrs by AlphaLISA assay; assay type: cell-based
[34] = tested on: PSN1; assay: Cytotoxicity against human PSN1 cells harboring KRAS G12R mutant cultured as 2D cells assessed as inhibition of cell proliferation incubated for 120 hrs by CellTiter-Glo luminescence assay; assay type: functional, cell-based
[35] = tested on: NCI-H441; assay: Cytotoxicity against human NCI-H441 cells harboring KRAS G12V mutant cultured as 2D cells assessed as inhibition of cell proliferation incubated for 120 hrs by CellTiter-Glo luminescence assay; assay type: functional, cell-based

Voltage-dependent L-type calcium channel subunit alpha-1C, sequence (Q13936 whole entry): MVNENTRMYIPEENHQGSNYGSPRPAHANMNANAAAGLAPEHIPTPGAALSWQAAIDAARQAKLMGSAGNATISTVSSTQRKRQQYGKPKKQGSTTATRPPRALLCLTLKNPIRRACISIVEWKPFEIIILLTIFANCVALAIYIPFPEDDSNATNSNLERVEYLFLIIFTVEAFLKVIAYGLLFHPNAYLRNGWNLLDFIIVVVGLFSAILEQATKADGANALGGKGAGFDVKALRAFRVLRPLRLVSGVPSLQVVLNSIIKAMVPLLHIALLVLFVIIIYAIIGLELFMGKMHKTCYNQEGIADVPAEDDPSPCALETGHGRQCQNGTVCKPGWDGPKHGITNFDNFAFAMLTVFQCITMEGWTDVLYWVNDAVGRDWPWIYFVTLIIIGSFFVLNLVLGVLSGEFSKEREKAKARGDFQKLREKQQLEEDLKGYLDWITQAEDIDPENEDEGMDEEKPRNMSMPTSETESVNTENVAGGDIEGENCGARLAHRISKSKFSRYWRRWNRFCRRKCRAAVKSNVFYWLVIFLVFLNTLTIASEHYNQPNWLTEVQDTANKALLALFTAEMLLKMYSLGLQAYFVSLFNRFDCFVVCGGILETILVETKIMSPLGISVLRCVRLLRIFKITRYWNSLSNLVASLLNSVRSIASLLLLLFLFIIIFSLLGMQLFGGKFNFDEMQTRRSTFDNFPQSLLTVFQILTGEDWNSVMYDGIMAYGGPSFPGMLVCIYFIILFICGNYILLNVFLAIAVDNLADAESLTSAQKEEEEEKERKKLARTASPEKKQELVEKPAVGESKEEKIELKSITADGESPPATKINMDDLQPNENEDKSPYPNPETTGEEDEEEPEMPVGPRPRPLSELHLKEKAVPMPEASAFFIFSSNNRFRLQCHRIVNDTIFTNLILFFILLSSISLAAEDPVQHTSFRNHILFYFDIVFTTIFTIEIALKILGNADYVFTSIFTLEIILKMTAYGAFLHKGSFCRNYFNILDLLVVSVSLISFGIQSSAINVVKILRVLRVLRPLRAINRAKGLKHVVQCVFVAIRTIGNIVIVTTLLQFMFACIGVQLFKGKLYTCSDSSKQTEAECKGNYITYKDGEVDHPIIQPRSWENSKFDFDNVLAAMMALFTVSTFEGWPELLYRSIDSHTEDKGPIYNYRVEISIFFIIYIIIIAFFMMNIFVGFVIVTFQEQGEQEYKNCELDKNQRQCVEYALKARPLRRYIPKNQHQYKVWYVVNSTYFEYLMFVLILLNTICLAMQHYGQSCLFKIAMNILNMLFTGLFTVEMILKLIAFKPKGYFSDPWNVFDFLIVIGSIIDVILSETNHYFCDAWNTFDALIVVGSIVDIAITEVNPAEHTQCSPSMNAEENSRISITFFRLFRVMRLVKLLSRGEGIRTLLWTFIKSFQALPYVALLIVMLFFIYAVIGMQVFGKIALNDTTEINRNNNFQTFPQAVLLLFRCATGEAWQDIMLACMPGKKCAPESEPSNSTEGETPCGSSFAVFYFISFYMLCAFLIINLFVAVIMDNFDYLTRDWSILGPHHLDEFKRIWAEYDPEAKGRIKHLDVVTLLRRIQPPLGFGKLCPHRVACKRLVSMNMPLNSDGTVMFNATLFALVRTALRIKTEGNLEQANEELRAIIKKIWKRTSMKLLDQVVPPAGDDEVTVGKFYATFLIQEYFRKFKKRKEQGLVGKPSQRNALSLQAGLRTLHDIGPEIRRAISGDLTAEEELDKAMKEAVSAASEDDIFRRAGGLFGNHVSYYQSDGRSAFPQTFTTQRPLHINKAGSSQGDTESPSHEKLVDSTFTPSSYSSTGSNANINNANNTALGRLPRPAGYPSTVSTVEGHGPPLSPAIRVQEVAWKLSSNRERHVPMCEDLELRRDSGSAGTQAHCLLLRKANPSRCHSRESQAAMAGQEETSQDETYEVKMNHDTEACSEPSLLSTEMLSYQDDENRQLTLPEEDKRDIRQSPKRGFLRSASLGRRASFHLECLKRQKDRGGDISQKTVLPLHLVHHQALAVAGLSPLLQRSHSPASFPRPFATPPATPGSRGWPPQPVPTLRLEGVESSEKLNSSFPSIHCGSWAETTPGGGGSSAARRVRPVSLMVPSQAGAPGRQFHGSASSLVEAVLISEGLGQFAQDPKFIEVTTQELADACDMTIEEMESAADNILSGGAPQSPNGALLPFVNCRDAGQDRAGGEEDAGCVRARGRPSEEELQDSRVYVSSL

CCn1c(-c2cc(N3CCN(C)CC3)cnc2[C@H](C)OC)c2c3cc(ccc31)-c1csc(n1)C[C@H](NC(=O)[C@H]1C[C@@H]1C)C(=O)N1CCC[C@H](N1)C(=O)OCC(C)(C)C2
half-life at 2 µM [1]: 68 min
EC50 [2]: 1.3 nM
Activity [3]: Non-toxic
Activity [4]: Non-toxic
inhibition [5]: Active
Vd [6]: 1.9 L/kg
IC50 [7]: 229 nM
EC50 [8]: 1.6 nM
half-life [9]: 132 min
efflux ratio at 2 h, 5 µM [10]: 21
solubility kinetic at 5 h [11]: > 100 µM
Activity [12]: Active
IC50 [13]: 35 nM
Activity [14]: Active
bioavailability [15]: 24%
inhibition [16]: Active
Activity [17]: Active
Activity [18]: Non-toxic
EC50 [19]: 3.1 nM
inhibition in vivo at 10 mg/kg [20]: 95%
Activity [21]: Dose-dependent-effect
clearance [22]: 21.7 mL/min/kg
clearance [23]: 40 mL/min/kg
IC50 [24]: > 30 µM
solubility kinetic at 5 h [25]: 71 µM (≈ 57.6 µg/mL)
Activity [26]: Non-toxic
inhibition [27]: Not active; Pathway Reactivation Observed
Vd [28]: 1.3 L/kg
Activity [29]: Active
bioavailability [30]: 52%
IC50 [31]: 48 nM
Tmax [32]: 42 min
inhibition [33]: Active
Activity [34]: Active
Activity [35]: Active
